Experimental data published in PMC10107299, “Neutralizing the Impact of the Virulence Factor LecA from Pseudomonas aeruginosa on Human Cells with New Glycomimetic Inhibitors” (Angewandte Chemie (International Ed. in English), 2023).
Several values for one entry are separate records, joined by “and”; a condition that tells them apart may be missing. Equal values may be shown once.

What was measured:
LecA [1] = target: T1, LecA (Pseudomonas aeruginosa, UniProt Q05097); assay: Isothermal titration microcalorimetry (ITC) with LecA; type: binding; conditions: for -TΔS (supplement) / ΔS: ITC average ± s.d.; for Relative potency r.p. (ITC): compared to respective monovalent compound in each series; for ΔG, individual titration / ΔH, individual titration: LecA 35-182 µM, ligand 100 µM-1.5 mM as headed
T1 construct: made in house
Description: Due to the high solubility of the propanamides in the pyridine series and the sulfonated ligand L2, we determined binding thermodynamics with LecA using isothermal titration microcalorimetry (ITC, Figure 3, Figures S5–S9). […] In both cases, the enthalpy of binding increased approximately twofold (I2: ΔH=−23.9±1.2 kcal mol^−1, L2: ΔH=−19.5±1.3 kcal mol^−1) compared to their monovalent analogues (G2: ΔH=−11.0±0.2 kcal mol^−1, K2: ΔH=−10.3±0.1 kcal mol^−1), while the binding entropy was increased approximately threefold (G2: −TΔS=3.8±0.2 kcal mol^−1 vs. I2: −TΔS=13.7±1.3 kcal mol^−1, K2: −TΔS=3.2±0.2 kcal mol^−1 vs. L2: −TΔS=9.4±1.3 kcal mol^−1).
Figure 3 Direct binding of selected ligands to LecA by ITC (N=3). Titration of LecA (50 μM) with divalent sulfonated ligand L2 (250 μM) is depicted. Relative potencies (r.p.) were calculated compared to respective monovalent compound in each series and […]. TEXT PRINTED IN THE PICTURE: G2: ΔG [kcal/mol]: -7.2 ± 0.1; ΔH [kcal/mol]: -11.0 ± 0.2; -TΔS [kcal/mol]: 3.8 ± 0.2; N: 1.07 ± 0.06; Kd [nM]: 5 270 ± 30; r.p.: 1 | I2: ΔG [kcal/mol]: -10.2 ± 0.2; ΔH [kcal/mol]: -23.9 ± 1.2; -TΔS [kcal/mol]: 13.7 ± 1.3; N: 0.43 ± 0.01; Kd [nM]: 35.1 ± 12.5; r.p.: 150 | J2: ΔG [kcal/mol]: -9.7 ± 0.2; ΔH [kcal/mol]: -13.5 ± 0.4; -TΔS [kcal/mol]: 3.8 ± 0.5; N: 0.61 ± 0.06; Kd [nM]: 79.5 ± 32.8; r.p.: 66 | K2: ΔG [kcal/mol]: -7.1 ± 0.1; ΔH [kcal/mol]: -10.3 ± 0.1; -TΔS [kcal/mol]: 3.2 ± 0.2; N: 1.08 ± 0.13; Kd [nM]: 6 230 ± 440; r.p.: 1 | L2: ΔG [kcal/mol]: -10.1 ± 0.1; ΔH [kcal/mol]: -19.5 ± 1.3; -TΔS [kcal/mol]: 9.4 ± 1.3; N: 0.52 ± 0.06; Kd [nM]: 39.9 ± 3.6; r.p.: 156 […]
Expression and purification of LecA as well as competitive binding by fluorescence polarization was performed as described by Joachim et al..[9] The assay was performed in TBS/Ca2+ buffer (20 mM Tris, 137 mM NaCl, 2.6 mM KCl at pH 7.4 supplemented with 1 mM […]
CaCl2) in presence of 25% DMSO. […]
Isothermal titration calorimetry was performed on an iTC200 (Malvern Panalytical) and the data were analyzed using Microcal Origin software (Malvern Panalytical). LecA (50 - 180 […]
K2 and L2 and TBS/Ca2+ buffer supplemented with 5% DMSO for I2 and J2. Steep titration slopes achieved with the divalent ligands were the result of high amount of protein present and the high binding affinity of the ligand (high ‘value of c’).[10] However, LecA protein […]
low heat released upon binding. […]

LecA [2] = target: T1, LecA; assay: LecA binding and cellular uptake by fluorescence confocal microscopy; type: cell-based; conditions: for Concentration for complete inhibition of LecA binding and cellular uptake: 0.5 μM LecA-AF488, H1299 cells, confocal microscopy; for LecA binding to H1299 cells (fluorescence signal): 10 μM inhibitor
Procedure: The ability of H2 and L2 to diminish LecA binding to host receptors at the plasma membrane and its subsequent internalization into H1299 cells was further analyzed by confocal fluorescence microscopy. Here, the applied LecA concentration was increased to improve signal to noise and consequently image quality and inhibitors were preincubated with 0.5 μM LecA before addition to the cells. […] Confocal microscopy images thus confirmed that the divalent inhibitors can prevent LecA binding to the cell surface and reduce lectin uptake in a concentration‐dependent manner. […]
LecA binding and cellular uptake by fluorescence confocal microscopy
Between 5 and 7 × 10^4 cells were seeded on a 12 mm glass coverslip to which they adhered overnight, at 37 °C and 5% CO2. The next day, the cells were incubated with 0.5 µM LecA-AF488 for 30 min at 4 °C and protected from light. Where indicated, LecA was firstly preincubated with PNPG, G2, K2, H2 or L2 in RPMI medium, for 30 min at room temperature and protected from light and then added to the cells for further incubation (30 min, 4 °C).
Subsequently, cells were washed with PBS (-/-) to remove the unbound lectin and inhibitors and the samples were incubated for 1 h at 37 °C. After the lectin stimulation, cells were washed twice with ice-cold PBS (-/-), fixed with 4% paraformaldehyde solution for 15 min and quenched with 50 mM ammonium chloride for 10 min. The membrane was permeabilized and cells were blocked by 0.2% Saponin in 3% BSA in PBS (w/v) for 30 min. The cell nuclei were counterstained with DAPI (5 × 10-9 g/L), and the samples were mounted on coverslips using Mowiol 4-88 (containing the anti-bleaching reagent DABCO). Samples were visualized with laser scanning confocal microscope system from Nikon (Eclipse Ti-E, A1R), equipped with a 60x oil immersion objective and a numerical aperture (NA) of 1.49. The images were analyzed

[3] = ITC average, 25 °C, TBS/Ca2+ buffer (5% DMSO for I2 and J2), N=3
[4] = Kd (ITC), ITC average, 25 °C, TBS/Ca2+ buffer
[5] = Kd, individual titration, single ITC titrations, three per ligand
[6] = single ITC titrations, three per ligand

T1 sequence (Q05097 whole entry): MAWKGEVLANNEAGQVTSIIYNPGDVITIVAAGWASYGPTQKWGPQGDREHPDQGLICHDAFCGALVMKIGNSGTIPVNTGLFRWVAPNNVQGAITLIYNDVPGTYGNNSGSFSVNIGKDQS

Row | SMILES | -TΔS (supplement) (LecA [1]; 25 °C) | ΔS (LecA [1]; 25 °C) | N (stoichiometry) (LecA [1]; ITC average, 25 °C, N=3) | -TΔS (LecA [1]; [3]) | ΔG (LecA [1]; [3]) | ΔH (LecA [1]; [3]) | Kd (LecA [1]; [4]) | Kd (LecA [1]; [5]) | Relative potency r.p. (ITC) (LecA [1]) | N, individual titration (LecA [1]; [6]) | ΔS, individual titration (LecA [1]; [6]) | ΔG, individual titration (LecA [1]; [6]) | ΔH, individual titration (LecA [1]; [6]) | Concentration for complete inhibition of LecA binding and cellular uptake (LecA [2]) | LecA binding to H1299 cells (fluorescence signal) (LecA [2]) | Kd (LecA [1]; Kd (ITC), ITC average, 25 °C, TBS/Ca2+ buffer (5% DMSO for I2 and J2), N=3)
1 | COc1ccc(NC(=O)CCc2ccc(O[C@@H]3O[C@H](CO)[C@H](O)[C@H](O)[C@H]3O)cc2)cn1 [Compound G2] | 3.8 ± 0.2 kcal/mol | -12.8 ± 0.6 cal/mol/K | 1.07 ± 0.06 | 3.8 ± 0.2 kcal/mol | -7.2 ± 0.01 kcal/mol and -7.2 ± 0.1 kcal/mol | -11.0 ± 0.2 kcal/mol | 5.27 ± 0.03 µM | 5.32 µM and 5.26 µM and 5.24 µM | 1 | 1.10 and 1.13 and 0.99 | -12.5 cal/mol/K and -13.7 cal/mol/K and -12.3 cal/mol/K | -7.2 kcal/mol | -10.9 kcal/mol (2×) and -11.3 kcal/mol | 75 µM | – | –
2 | O=C(CCc1ccc(O[C@@H]2O[C@H](CO)[C@H](O)[C@H](O)[C@H]2O)cc1)Nc1ccc(OCCOc2ccc(NC(=O)CCc3ccc(O[C@@H]4O[C@H](CO)[C@H](O)[C@H](O)[C@H]4O)cc3)cn2)nc1 [Compound H2] | – | – | – | – | – | – | – | – | – | – | – | – | – | – | remarkably decreased | –
3 | Cc1ccc(NC(=O)CCc2ccc(O[C@@H]3O[C@H](CO)[C@H](O)[C@H](O)[C@H]3O)cc2)cc1S(=O)(=O)O [Compound K2] | 3.2 ± 0.2 kcal/mol | -10.7 ± 0.6 cal/mol/K | 1.08 ± 0.13 | 3.2 ± 0.2 kcal/mol | -7.1 ± 0.1 kcal/mol | -10.3 ± 0.1 kcal/mol | 6.23 ± 0.44 µM | 6.33 µM and 5.65 µM and 6.71 µM | 1 | 1.25 and 1.05 and 0.94 | -10.0 cal/mol/K and -11.3 cal/mol/K and -10.7 cal/mol/K | -7.1 kcal/mol (2×) and -7.2 kcal/mol | -10.3 kcal/mol and -10.1 kcal/mol and -10.4 kcal/mol | 75 µM | – | –
4 | O=C(CCc1ccc(O[C@@H]2O[C@H](CO)[C@H](O)[C@H](O)[C@H]2O)cc1)Nc1ccc(CCc2ccc(NC(=O)CCc3ccc(O[C@@H]4O[C@H](CO)[C@H](O)[C@H](O)[C@H]4O)cc3)cc2S(=O)(=O)O)c(S(=O)(=O)O)c1 [Compound L2] | 9.4 ± 1.3 kcal/mol | -31.6 ± 4.4 cal/mol/K | 0.52 ± 0.06 | 9.4 ± 1.3 kcal/mol | -10.1 ± 0.1 kcal/mol | -19.5 ± 1.3 kcal/mol | – | 0.0448 µM and 0.038 µM and 0.0368 µM | 156 | 0.56 and 0.55 and 0.44 | -27.5 cal/mol/K and -37.6 cal/mol/K and -29.6 cal/mol/K | -10.0 kcal/mol and -10.1 kcal/mol (2×) | -18.9 kcal/mol and -18.3 kcal/mol and -21.4 kcal/mol | – | remarkably decreased | 0.0399 ± 0.0036 µM
